US20250332173A1, “COMPOUNDS AND METHODS FOR MODULATING NUCLEIC ACID SPLICING” (REMIX THERAPEUTICS INC., priority 2021, published 2025)
Like-named read-outs stand apart in the source and are kept apart here.

Tests used:
HTT mRNA = assay: RT-qPCR splicing assay, HTT canonical junction (CJ) and alternative junction (AJ) mRNA; assay type: cell-based, human; conditions: Homo sapiens; for AC50: increase in HTT alternative junction (AJ) mRNA, read-out: HTT AJ AC50
Method in brief: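 A673 or K562 cells were treated for 24 h at 37 °C with an 11-point 3-fold compound dilution series (top final concentration 10 uM, DMSO ≤0.25%). After lysis, one-step TaqMan RT-qPCR quantified junction transcripts, normalized to PPIA for A673 or to GAPDH/GUSB for K562.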

SMN2 mRNA = assay: RT-qPCR splicing assay, SMN2 canonical junction (CJ) mRNA; assay type: cell-based, human; conditions: Homo sapiens; Table 5 panel; canonical junction qPCR; compound concentration having 50% response in CJ decrease; read-out: SMN2 IC50 (decrease in CJ mRNA levels)
Method in brief: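 Canonical-junction transcript levels in compound-treated A673 or K562 cells (24 h, up to 10 uM final) were determined from lysates by RT-qPCR with housekeeping-gene normalization.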

[1] = decrease in HTT canonical junction (CJ) mRNA, RT-qPCR, read-out: HTT CJ IC50
[2] = Table 5 panel, canonical junction qPCR, compound concentration having 50% response in CJ decrease, read-out: HTT IC50 (decrease in CJ mRNA levels)

| SMILES | IC50 (HTT mRNA; [1]) | AC50 (HTT mRNA; RT-qPCR) | IC50 (HTT mRNA; [2]) | IC50 (SMN2 mRNA) |
| --- | --- | --- | --- | --- |
| Cc1cn2nc(-c3cc(O)c4c(=O)n(C5CCNC5)ccc4c3)cc(C)c2n1 (stereo not drawn) [Compound 432, 6-{2,8-dimethylimidazo[1,2-b]pyridazin-6-yl}-8-hydroxy-2-(pyrrolidin-3-yl)isoquinolin-1-one] | 1000 to 10000 nM | 1000 to 10000 nM | 1000 to 10000 nM | < 100 nM |
| Cn1cc2cc(-n3cnc4cc(NC5CCNCC5)ccc4c3=O)ccc2n1 [Compound 162] | > 10000 nM | > 10000 nM | > 10000 nM | > 10000 nM |
| Cc1cn2nc(-c3cc(F)c4c(=O)n(C5CCN(C)CC5)ccc4c3)cc(C)c2n1 [Compound 400, 6-(2,8-dimethylimidazo[1,2-b]pyridazin-6-yl)-8-fluoro-2-(1-methylpiperidin-4-yl)isoquinolin-1(2H)-one] | < 100 nM | < 100 nM | < 100 nM | < 100 nM |
| Cc1cn2nc(-c3cc(F)c4c(=O)n([C@@H]5CCNC6(CC6)C5)ccc4c3)cc(C)c2n1 (single isomer, unassigned) [Compound 425] | < 100 nM | < 100 nM | < 100 nM | < 100 nM |
| Cc1cc(-c2ccc3c(=O)n(C4CCNC5(COC5)C4)cnc3c2)cc2cn(C)nc12 (stereo not drawn) [Compound 375] | 1000 to 10000 nM | 1000 to 10000 nM | 1000 to 10000 nM | 1000 to 10000 nM |
| COc1cc(-c2cc(C)c3nc(C)cn3n2)cc2ccn(C3CCNCC3)c(=O)c12 [Compound 399, 6-{2,8-dimethylimidazo[1,2-b]pyridazin-6-yl}-8-methoxy-2-(piperidin-4-yl)isoquinolin-1-one] | 100 to 1000 nM | 100 to 1000 nM | 100 to 1000 nM | < 100 nM |
| Cc1cn2nc(-c3cc(F)c4c(=O)n([C@H]5CCNC6(CC6)C5)ccc4c3)cc(C)c2n1 (single isomer, unassigned) [Compound 426] | < 100 nM | < 100 nM | < 100 nM | < 100 nM |
| Cc1cn2nc(-c3ccc4c(=O)n([C@@H]5CCNC6(CC6)C5)ncc4c3)cc(C)c2n1 (stereo in doubt) [Compound 368, 2-[(7R)-4-azaspiro[2.5]octan-7-yl]-6-{2,8-dimethylimidazo[1,2-b]pyridazin-6-yl}phthalazin-1-one] | < 100 nM | < 100 nM | < 100 nM | < 100 nM |
| Cc1cn2nc(-c3ccc4c(=O)n(C5CCNCC5)cc(C)c4c3)cc(C)c2n1 [Compound 381, 6-{2,8-dimethylimidazo[1,2-b]pyridazin-6-yl}-4-methyl-2-(piperidin-4-yl)isoquinolin-1-one] | 100 to 1000 nM | < 100 nM | < 100 nM | < 100 nM |
| Cc1cn2nc(-c3cc(F)c4c(=O)n(C5CCNC6(CC6)C5)ccc4c3)cc(C)c2n1 (stereo not drawn) [Compound 380, 6-(2,8-dimethylimidazo[1,2-b]pyridazin-6-yl)-8-fluoro-2-(4-azaspiro[2.5]octan-7-yl)isoquinolin-1(2H)-one] | < 100 nM | < 100 nM | < 100 nM | < 100 nM |
| Cc1cn2c(n1)CCC(c1ccc3c(=O)n(C4CCNCC4)ccc3c1)C2 (stereo not drawn) [Compound 453, 6-{2-methyl-5H,6H,7H,8H-imidazo[1,2-a]pyridin-6-yl}-2-(piperidin-4-yl)isoquinolin-1-one] | > 10000 nM | > 10000 nM | > 10000 nM | > 10000 nM |
| Cc1cn2nc(-c3ccc4c(=O)n([C@H]5CCNC6(CC6)C5)ncc4c3)cc(C)c2n1 [Compound 369, 2-[(7S)-4-azaspiro[2.5]octan-7-yl]-6-{2,8-dimethylimidazo[1,2-b]pyridazin-6-yl}phthalazin-1-one] | < 100 nM | < 100 nM | < 100 nM | < 100 nM |
| Cn1cc2cc(-c3cc(F)c4c(=O)n(C5CCNC6(CC6)C5)ccc4c3)cc(F)c2n1 (stereo not drawn) [Compound 412] | < 100 nM | < 100 nM | < 100 nM | < 100 nM |
| Cc1cn2nc(-c3ccc4c(=O)n(C5CCCNC5)ccc4c3)cc(C)c2n1 (stereo in doubt) [Compound 410, 6-{2,8-dimethylimidazo[1,2-b]pyridazin-6-yl}-2-[(3S)-piperidin-3-yl]isoquinolin-1-one] | 1000 to 10000 nM | 1000 to 10000 nM | 1000 to 10000 nM | < 100 nM |
| Cc1cn2cc(-c3cc(F)c4c(=O)n(C5CCOC5)cnc4c3)cc(C#N)c2n1 (stereo in doubt) [Compound 500, (S)-6-(5-fluoro-4-oxo-3-(tetrahydrofuran-3-yl)-3,4-dihydroquinazolin-7-yl)-2-methylimidazo[1,2-a]pyridine-8-carbonitrile] | 100 to 1000 nM | 100 to 1000 nM | 100 to 1000 nM | 100 to 1000 nM |
| Cc1cn2nc(-c3ccc4c(=O)n(C5CCNC6(CC6)C5)ccc4c3)cc(C)c2n1 (stereo not drawn) [Compound 384] | < 100 nM | < 100 nM | < 100 nM | < 100 nM |
| Cc1cn2nc(-c3cc(C)c4c(=O)n(C5CCNC6(CC6)C5)ncc4c3)cc(C)c2n1 (stereo not drawn) [Compound 423, 6-(2,8-dimethylimidazo[1,2-b]pyridazin-6-yl)-8-methyl-2-(4-azaspiro[2.5]octan-7-yl)phthalazin-1(2H)-one] | < 100 nM | < 100 nM | < 100 nM | < 100 nM |
| Cc1cn2cc(-c3cc(F)c4c(=O)n(C5CCNCC5)ccc4c3)cc(C#N)c2n1 [Compound 383, 6-[8-fluoro-1-oxo-2-(piperidin-4-yl)isoquinolin-6-yl]-2-methylimidazo[1,2-a]pyridine-8-carbonitrile] | 1000 to 10000 nM | 100 to 1000 nM | 100 to 1000 nM | < 100 nM |
| Cc1cn2cc(-c3cc(F)c4c(=O)n(C5CCNC6(CC6)C5)ccc4c3)c(O)c(C)c2n1 (stereo not drawn) [Compound 421, 2-{4-azaspiro[2.5]octan-7-yl}-8-fluoro-6-{7-hydroxy-2,8-dimethylimidazo[1,2-a]pyridin-6-yl}isoquinolin-1-one] | > 10000 nM | > 10000 nM | > 10000 nM | > 10000 nM |
| Cc1cn2cc(-c3cc(S(C)(=O)=O)c4c(=O)n(C5CCNCC5)ccc4c3)cc(F)c2n1 [Compound 409, 6-(8-fluoro-2-methylimidazo[1,2-a]pyridin-6-yl)-8-(methylsulfonyl)-2-(piperidin-4-yl)isoquinolin-1(2H)-one] | > 10000 nM | > 10000 nM | > 10000 nM | > 10000 nM |
| Cc1cn2cc(-c3cc(O)c4c(=O)n(C5CCNC5)ccc4c3)cc(C#N)c2n1 (stereo not drawn) [Compound 433, 6-(8-hydroxy-1-oxo-2-(pyrrolidin-3-yl)-1,2-dihydroisoquinolin-6-yl)-2-methylimidazo[1,2-a]pyridine-8-carbonitrile] | > 10000 nM | > 10000 nM | > 10000 nM | < 100 nM |
| Cc1cn2cc(-c3cc(F)c4c(=O)n(C5CCOC5)cnc4c3)cc(C#N)c2n1 (stereo in doubt) [Compound 499, (R)-6-(5-fluoro-4-oxo-3-(tetrahydrofuran-3-yl)-3,4-dihydroquinazolin-7-yl)-2-methylimidazo[1,2-a]pyridine-8-carbonitrile] | 100 to 1000 nM | 100 to 1000 nM | 100 to 1000 nM | 100 to 1000 nM |
| Cn1cc2cc(-c3cc(F)c4c(=O)n(C5CCNCC5)ccc4c3)cc(C#N)c2n1 [Compound 394, 5-(8-fluoro-1-oxo-2-(piperidin-4-yl)-1,2-dihydroisoquinolin-6-yl)-2-methyl-2H-indazole-7-carbonitrile] | < 100 nM | < 100 nM | < 100 nM | < 100 nM |
| Cc1cn2nc(-c3cc(O)c4c(=O)n(C5CCNC5)cc(C)c4c3)cc(C)c2n1 (stereo not drawn) [Compound 462] | 1000 to 10000 nM | 1000 to 10000 nM | 1000 to 10000 nM | 100 to 1000 nM |
| CN1C2C=C(c3ccc4c(=O)n(-c5ccc6nn(C)cc6c5)cnc4c3)CC1CC2 (stereo not drawn) [Compound 161] | > 10000 nM | > 10000 nM | > 10000 nM | > 10000 nM |
| Cc1cc(-c2cc(F)c3c(=O)n(C4CCNC5(CC5)C4)ccc3c2)cc2cn(C)nc12 (stereo not drawn) [Compound 415, 2-{4-azaspiro[2.5]octan-7-yl}-6-(2,7-dimethylindazol-5-yl)-8-fluoroisoquinolin-1-one] | < 100 nM | < 100 nM | < 100 nM | < 100 nM |
| Cc1cn2cc(-c3ccc4c(=O)n([C@@H]5CCCNC5)ccc4c3)cc(F)c2n1 (single isomer, unassigned) [Compound 403] | 1000 to 10000 nM | 1000 to 10000 nM | 1000 to 10000 nM | < 100 nM |
| CC(=O)c1cc(-c2cc(F)c3c(=O)n(C4CCNCC4)ccc3c2)cn2cc(C)nc12 [Compound 393, 6-{8-acetyl-2-methylimidazo[1,2-a]pyridin-6-yl}-8-fluoro-2-(piperidin-4-yl)isoquinolin-1-one 2,2,2-trifluoroacetate] | 1000 to 10000 nM | 100 to 1000 nM | 100 to 1000 nM | < 100 nM |
| Cc1cn2nc(-c3ccc4c(=O)n([C@H]5CCNC[C@H]5F)cnc4c3)cc(C)c2n1 [Compound 372] | 100 to 1000 nM | 100 to 1000 nM | 100 to 1000 nM | < 100 nM |
| Cc1cn2cc(-c3ccc4c(=O)n(C5CCNC5)cc(C)c4c3)cc(F)c2n1 (stereo not drawn) [Compound 441, 6-{8-fluoro-2-methylimidazo[1,2-a]pyridin-6-yl}-4-methyl-2-(pyrrolidin-3-yl)isoquinolin-1-one] | > 10000 nM | > 10000 nM | > 10000 nM | 100 to 1000 nM |
